Reference: patent US10899763B2, “Crystalline forms of salts of fused penta-cyclic dihydrodiazepinocarbazolones, and uses thereof” (BEIGENE, LTD., priority 2017, dated 2021)
Like-named read-outs stand apart in the source and are kept apart here.

Legend:
[1] = Kinetic solubility test in bio-relevant media and H2O; type: physicochemical; conditions: for solubility: thermodynamic from solid; for solubility / dissolution profile in bio-relevant media (FaSSIF and FeSSIF): RT; for dissolution profile in bio-relevant media (FaSSIF and FeSSIF): sampled at 1 hr, 4 hrs and 24 hrs
Method: About 20 mg of each sample (Forms A, B or C2) was equilibrated in 3.0 mL of three bio-relevant media, i.e., fasted state small intestinal fluid (FaSSIF), Fed State Simulating Intestinal Fluid (FeSSIF) and Simulated Gastric Fluid (SGF), or H2O into each 4-mL plastic vial. The suspensions were mixed via triturating (25 rpm) at RT, with each suspension sampled at the end of 1 hr, 4 hrs and 24 hrs, respectively.

[2] = Phase I clinical safety study; type: in vivo; conditions: capsules, 2.5-120 mg bid, 25 subjects
[3] = Solid-state stability test; type: physicochemical; conditions: HPLC
Method: Each sample (Forms A, B or C2) was exposed to both conditions of 25° C./60% RH and 40° C./75% RH. After one-week storage, all the samples were characterized by XRPD to test any solid form change and by HPLC to check the purity change.

[4] = Hygroscopicity test (DVS isotherm, XRPD); type: physicochemical; conditions: for Water uptake % at 80% RH, Adsorption / Water uptake % at 80% RH, Desorption: DVS at 25° C.; for Hygroscopicity: concluded from the water uptake from adsorption cycle
Method: To investigate the solid form stability as a function of humidity, DVS isotherm plot (at 25° C.) and XRPD pattern were collected, see Table 11. The uptake percentage differences between desorption and adsorption are speculated to be related to the replacement of possible residual solvent with moisture.

[5] = Solid form change on heating (XRPD, VT-XRPD); type: physicochemical
Method: Associated with the results of TGA/DSC and solution NMR, Form B was confirmed to be an anhydrate.
To confirm the form change during heating of Form C2, VT-XRPD was conducted under protection of nitrogen.

MDA-MB-231 cells = test: Synthetic lethality, CellTiter-Glo cell viability, MDA-MB-231; type: cell-based; conditions: MDA-MB-231, 7-day exposure, table; read-out: EC50 for growth inhibition
Method: (§1) MDA-MB-231 cells that is not BRCA gene mutant or other homologous recombination deficient were maintained in DMEM supplemented with fetal bovine serum (10% FBS), 100 units/ml penicillin and 0.1 mg/ml streptomycin. BRCA1-deficient cell line MDA-MB-436 was maintained in RPMI-1640 supplemented with 10% FBS, 100 units/ml penicillin and 0.1 mg/ml streptomycin. Both two cell lines were kept at 95% humidity and 5% CO2 in a 37° C. incubator.
(§2) The number of tumor cells seeded per well of a 96-well plate was optimized for each cell line to ensure logarithmic growth over the 7 days treatment period. Cells were left to attach for 16 hours and then treated with specific concentrations of test compounds. Following a 7-day exposure to the compound, the growth-inhibitory activity of compounds was determined using CellTiter-Glo luminescent cell viability assay (Promega). Luminescent signal was measured using PHERAstar FS reader (BMG Labtech). Cell viability was expressed as relative to mock treatment control. EC50 values for growth inhibition were calculated by fitting dose-dependent data to the four-parameter logistic model using XLfit software.

[6] = test system: MDA-MB-436 (BRCA1 Deficient); test: Synthetic lethality, CellTiter-Glo cell viability, MDA-MB-436; type: cell-based, human; conditions: 7-day exposure, table, read-out: EC50 for growth inhibition
Method: as §1, §2

[7] = test system: intracellular PARP activity in HeLa cells; test: Intracellular target inhibition: cellular PAR formation in hydrogen peroxide treated HeLa cells; type: cell-based; conditions: read-out: IC50 (nM) in PARylation assay
Method: The assay was performed as follows:
Cells were plated into a 96-well plate with clear bottom and black wall at a density of 5000 cells per well (100 μL). […] In the following day, H2O2 solution in PBS (final concentration 200 μM) was added and the plate was kept at 37° C. for 5 minutes. Then the medium was gently removed by plate inversion, and the cells were fixed by ice-cold MeOH at −20° C. for 20 minutes. […] After removal of solution and repeated wash with PBS, the PAR polymer level was estimated by ArrayScan VTI (ThermoFisher). Percent inhibition was determined on the basis of the residual enzyme activity in the presence of increasing PARP inhibitor concentration. IC50 values were calculated by fitting dose-dependent data to the four-parameter logistic model using XLfit software.

[8] = FaSSIF, read-out: solubility in FaSSIF
[9] = FeSSIF, read-out: solubility in FeSSIF

SMILES: C[C@]12CCCN1CC1=NNC(=O)c3cc(F)cc4[nH]c2c1c34 [Crystalline Sesqui-Hydrate of Compound 1]
- solubility [1, 8]: < 100 µg/mL
- solubility [1, 9]: 1000 µg/mL
- clinical safety and tolerability [2]: safe and well tolerated

SMILES: C[C@]12CCCN1CC1=NNC(=O)c3cc(F)cc4[nH]c2c1c34 [Form A]
- Purity of initial(%) ([3]; 25° C./60% RH (7 days)): 100.1%
- Purity of initial(%) ([3]; 40° C./75% RH (7 days)): 100.1%
- dissolution profile in bio-relevant media (FaSSIF and FeSSIF) [1]: good solubility was observed in FaSSIF and FeSSIF at the first time point, but the values went down after equilibrated for a longer time
- dissolution profile in bio-relevant media (FaSSIF and FeSSIF) ([1]; listed as phosphate salt of Compound 1): higher solubility at the first time point, but the values went down after equilibrated for a longer time
- Water uptake % at 80% RH, Adsorption [4]: 1.9%
- Water uptake % at 80% RH, Desorption [4]: 2.1%
- Hygroscopicity [4]: Hygroscopic
- form change after heating and cooling at ambient conditions (XRPD) ([5]; heated to 170° C.): No form change

SMILES: C[C@]12CCCN1CC1=NNC(=O)c3cc(F)cc4[nH]c2c1c34.O=C(O)/C=C\C(=O)O [Form B]
- Purity of initial(%) ([3]; 25° C./60% RH (7 days)): 100.2%
- Purity of initial(%) ([3]; 40° C./75% RH (7 days)): 100.1%
- dissolution profile in bio-relevant media (FaSSIF and FeSSIF) [1]: Steady dissolution rate
- dissolution profile in bio-relevant media (FaSSIF and FeSSIF) ([1]; listed as maleate salt of Compound 1): steady dissolution profiles
- solubility [1, 8]: ~200 µg/mL
- solubility [1, 9]: ~500 µg/mL
- physical stability of the solid suspended in the media ([1]; up to 24 hours): physically stable
- Water uptake % at 80% RH, Adsorption [4]: 0.7%
- Water uptake % at 80% RH, Desorption [4]: 2.4%
- Hygroscopicity [4]: Slightly hygroscopic
- form change after heating and cooling at ambient conditions (XRPD) ([5]; heated to 150° C.): No form change

SMILES: C[C@]12CCCN1CC1=NNC(=O)c3cc(F)cc4[nH]c2c1c34.O=C(O)/C=C/C(=O)O [Form C2]
- Purity of initial(%) ([3]; 25° C./60% RH (7 days)): 100.2%
- Purity of initial(%) ([3]; 40° C./75% RH (7 days)): 100.0%
- dissolution profile in bio-relevant media (FaSSIF and FeSSIF) [1]: good solubility was observed in FaSSIF and FeSSIF at the first time point, but the values went down after equilibrated for a longer time
- dissolution profile in bio-relevant media (FaSSIF and FeSSIF) ([1]; listed as fumarate salt of Compound 1): higher solubility at the first time point, but the values went down after equilibrated for a longer time
- Water uptake % at 80% RH, Adsorption [4]: 0.2%
- Water uptake % at 80% RH, Desorption [4]: 0.3%
- Hygroscopicity [4]: Slightly hygroscopic
- physical stability at ambient conditions ([5]; ambient conditions): good physical stability
- form change during heating (VT-XRPD) ([5]; heating to 140° C. and cooling back to 30° C. with N2 flow): a new form named as Form C3 was observed

SMILES: C[C@]12CCCN1CC1=NNC(=O)c3cc(F)cc4[nH]c2c1c34.O=C(O)/C=C/C(=O)O [Form C3]
- time to convert back to Form C2 after exposure to ambient conditions ([5]; ~25° C./70% RH): ≤ 1 h

SMILES: O=C(c1cc(Cc2n[nH]c(=O)c3ccccc23)ccc1F)N1CCN(C(=O)C2CC2)CC1 [Olaparib]
- EC50 (MDA-MB-231 cells): ~5 µM
- EC50 [6]: 21 ± 7 nM

SMILES: C[C@]1(c2nc3c(C(N)=O)cccc3[nH]2)CCCN1 [Veliparib]
- IC50 [7]: 2.66 nM
- EC50 (MDA-MB-231 cells): > 10 µM
- EC50 [6]: 820 ± 300 nM
